Laboratory results from US11639364B2, “Potent sialyltransferase inhibitors” (STICHTING RADBOUD UNIVERSITEIT, priority 2018, dated 2023).
Like-named read-outs stand apart in the source and are kept apart here.

Experiments:
B16-F10 cells [1] = test: Inhibition of cell surface sialylation by urea, thiocarbamate and sulphonamide analogues (Example 5); format: cell-based, Mouse; conditions: for IC50: three days, 0.1-204.8 μM
Protocol: (§1) Mouse B16-F10 melanoma cells (ATCC CRL-6475) were cultured in Minimum Essential Medium (MEM) (Gibco, Invitrogen, Carlsbad, Calif.) containing 5% fetal bovine serum (FBS) (Greiner Bio-one, Frickenhausen, Germany), 1% MEM non-essential amino acids (Gibco), 0.15% sodium bicarbonate (Gibco), 1 mM sodium pyruvate (Gibco), 1.5% MEM vitamins (Gibco), 1% antibiotic-antimycotic solution (50 U/ml penicillin, 50 μg/ml streptomycin and 125 ng/ml amphotericin B) (Gibco). The murine 9464D neuroblastoma cell line was cultured in Dulbecco's Modified Eagle's Medium (DMEM, Glutamax, Gibco) with 10% FBS, 1% non-essential amino acids, 50 μM 2-mercaptoethanol (Sigma-Aldrich) and 1% antibiotic-antimycotic solution (Kroesen et al., 2014, DOI: 10.1002/ijc.28463, Stauffer et al., 2012, DOI: 10.3109/07357907.2012.664670). The murine EL4 T lymphocyte cell line (ATCC TIB-39) was cultured in Iscove's Modified Dulbecco's Medium (IMDM, Gibco) supplemented with 5% FBS and 1% antibiotic-antimycotic solution. Human HEK293 (ATCC CRL-1573) kidney cells and human HeLa (ATCC CCL-2) cervical cancer cells were cultured in DMEM containing 10% FBS, 2 mM glutamine (Lonza, Walkersville, Md.) and 1% antibiotic-antimycotic solution. Human monocytic THP-1 cells (TIB-202, ATCC) were cultured in RRMI-1640 medium (Gibco) supplemented with 10% FBS, 2 mM glutamine and 1% antibiotic-antimycotic solution. All cell lines were cultured in a humidified 5% CO2 incubator at 37° C.
(§2) For the lectin staining, all cells were harvested and washed with 1× carbo-free blocking solution (Vector Laboratories, Inc., Burlingame, Calif., USA) and stained for 45 minutes at 4° C. in 1× carbo-free blocking solution containing 1 mM CaCl2), 1 mM MgCl2 and biotinylated MALII (5 μg/ml), SNA-1 (1 μg/ml) or PNA (5 μg/ml) all obtained from Vector Laboratories Inc. MALII recognizes α2,3-linked sialic acids, SNA-1 recognizes α2,6-linked sialic acids and PNA binds to terminal 3-galactose. In addition, B16-F10 cells were stained with 2 μg/ml biotinylated AAL (α-linked Fucose), LCA (α-linked Mannose), PHA-L (complex glycans), GSL-I (α-linked Galactose and N-Acetylgalactosamine), WGA (chitobiose), SJA (β-linked Galactose and N-Acetylgalactosamine) and PSA (Glucose and Mannose) purchased from Vector Laboratories Inc. Next, the cells were washed thrice in PBA (1×PBS, 1% BSA, and 0.02% sodium azide) and stained for 10 minutes at 4° C. with 2 μg/ml streptavidin-phycoerythrin (PE) (BD Pharmingen, Franklin Lakes, N.J., USA). The cells were washed thrice again with PBA and fluorescence was assessed using a CyAn ADP flow cytometer (BD Biosciences, San Jose, Calif.) followed by analysis with FlowJo software (Tree Star Inc., Ashland, Oreg.). Untreated cells stained with streptavidin-PE only served as background fluorescence control. The percentages lectin binding was calculated by normalizing the mean fluorescence intensity values from the treated cells with the DMSO controls.
(§3) IC50 values and statistics were calculated using Prism 5.03 (GraphPad Software, Inc., La Jolla, Calif.). Statistical significance between the different groups was calculated using one-way ANOVA followed by Bonferroni post-hoc testing and P-values<0.05 were considered significant (p<0.05 *, p<0.01 **, p<0.001 ***).
Analogous to example 3, the inhibitory potency of thiocarbamate 28, urea 29, and sulphonamides 30 and 31 on the sialic acid biosynthesis was assayed. To this end, B16-F10 cells were fed sialic acid precursors for three day at various concentrations (0.1-204.8 μM). The decrease in cell surface sialylation was measured using biotinylated lectins that are specific for binding α2,3-linked (MALII) or α2,6-linked (SNA-1) sialic acid residues, subsequently visualized using streptavidin-phycoerythrin. Conversely, binding of the underlying galactose residue uncovered by desialylation was measured using a galactose specific lectin (Peanut, Agglutinin Lectin, PNA). No inhibition was observed without a P-3Fax-Neu derivative present (DMSO vehicle control). […]

B16-F10 cells [2] = test: Inhibition of cell surface sialylation, lectin staining and flow cytometry, B16-F10 cells; format: cell-based, Mouse; conditions: three days
Protocol: as §1
(§4) To assess the effect of the synthesized compounds on cell surface sialylation, different murine and human cell lines were cultured for three days in the presence of 0-204.8 μM amide and carbamate fluorine sialic acids. Cells treated with an equal final percentage of DMSO were used as control and all cells were subjected to lectin staining and flow cytometry as described below. To investigate the longevity of the effect of the fluorine sialic acids on cell surface sialylation, B16-F10 cells treated with 25.6 μM or 51.2 μM were thoroughly washed with medium to remove fluorine sialic acids from the culture and reseeded. During a period of six days, cells were harvested every day and sialylation was assessed by flow cytometry.
as §2
as §3, with “***). […]” for “***).”

THP-1 cells = test: Inhibition of cell surface sialylation, lectin staining and flow cytometry, THP-1 cells; format: cell-based, Human; conditions: three days
Protocol: as §1, §4, §2
as §3, with “***). […]” for “***).”

HEK293 cells = test: Inhibition of cell surface sialylation, lectin staining and flow cytometry, HEK293 cells; format: cell-based, Human; conditions: three days
Protocol: as §1, §4, §2
as §3, with “***). […]” for “***).”

HeLa cells = test: Inhibition of cell surface sialylation, lectin staining and flow cytometry, HeLa cells; format: cell-based, human; conditions: three days
Protocol: as §1, §4, §2
as §3, with “***). […]” for “***).”

9464D cells = test: Inhibition of cell surface sialylation, lectin staining and flow cytometry, 9464D cells; format: cell-based, murine; conditions: three days
Protocol: as §1, §4, §2
as §3, with “***). […]” for “***).”

EL4 cells = test: Inhibition of cell surface sialylation, lectin staining and flow cytometry, EL4 cells; format: cell-based, murine; conditions: three days
Protocol: as §1, §4, §2
as §3, with “***). […]” for “***).”

[3] = Example 5, read-out: α2,3-Sia IC50 (MAL)
[4] = Example 5, read-out: α2,6-Sia IC50 (SNA)
[5] = Mus musculus, 72 h, MALII lectin binding, read-out: α2,3-Sia IC50
[6] = Mus musculus, 72 h, SNA-I lectin binding, read-out: α2,6-Sia IC50
[7] = Homo sapiens, 72 h, MALII lectin binding, read-out: α2,3-Sia IC50
[8] = Homo sapiens, 72 h, SNA-I lectin binding, read-out: α2,6-Sia IC50
[9] = MALII lectin binding, read-out: α2,3-Sia IC50
[10] = SNA-I lectin binding, read-out: α2,6-Sia IC50

Row | Compound | IC50 (B16-F10 cells [1]; [3]) [µM] | IC50 (B16-F10 cells [1]; [4]) [µM] | IC50 (B16-F10 cells [2]; [5]) [µM] | IC50 (B16-F10 cells [2]; [6]) [µM] | IC50 (THP-1 cells; [7]) [µM] | IC50 (THP-1 cells; [8]) [µM] | IC50 (HEK293 cells; [7]) [µM] | IC50 (HEK293 cells; [8]) [µM] | IC50 (HeLa cells; [7]) [µM] | IC50 (HeLa cells; [8]) [µM] | IC50 (9464D cells; [5]) [µM] | IC50 (9464D cells; [6]) [µM] | IC50 (EL4 cells; [5]) [µM] | IC50 (EL4 cells; [6]) [µM] | further results
1 | Methyl 5-(methylsulfonamido)-2,4,7,8,9-penta-O-acetyl-3,5-dideoxy-3-fluoro-D-glycero-β-galacto-non-2-ulopyranosonate [Sulphonamide 30] | 9.9 |  |  |  |  |  |  |  |  |  |  |  |  |  | inhibition of sialylation compared with the acetate (B16-F10 cells [1]; FIG. 8): outperforming the acetate at various concentrations
2 | Methyl 5-(S-ethylthiocarbamado)-2,4,7,8,9-penta-O-acetyl-3,5-dideoxy-3-fluoro-D-glycero-β-galacto-non-2-ulopyranosonate [Thiocarbamate 28] | 1.68 | 4.83 |  |  |  |  |  |  |  |  |  |  |  |  | 
3 | CCOC(=O)N[C@@H]1C(OC(C)=O)C(F)C(OC(C)=O)(C(=O)OC)OC1[C@H](OC(C)=O)[C@@H](COC(C)=O)OC(C)=O (stereo partly drawn) [SiaFEt, Methyl 5-(ethylcarbamado)-2,4,7,8,9-penta-O-acetyl-3,5-dideoxy-3-fluoro-D-glycero-β-galacto-non-2-ulopyranosonate] |  |  | 1.78 ± 0.16 | 3.87 ± 1.14 | 0.45 ± 0.74 | 0.37 | 2.02 ± 2.72 | 1.57 ± 4.23 | 2.02 ± 1.52 | 1.67 ± 1.31 | 8.91 ± 2.38 | 28.1 ± 5.51 | 42 ± 11 | 50.6 ± 8.84 | IC50 (B16-F10 cells [1]; Mus musculus, 72 h, Example 5, read-out: α2,3-Sia IC50 (MAL)): 0.929 µM; IC50 (B16-F10 cells [1]; Mus musculus, 72 h, Example 5, read-out: α2,6-Sia IC50 (SNA)): 3.92 µM
4 | Methyl 5-N-ethylamidnocarbonyl)-2,4,7,8,9-penta-O-acetyl-3,5-dideoxy-3-fluoro-D-glycero-β-galacto-non-2-ulopyranosonate [Urea 29] | 4.2 | 4.89 |  |  |  |  |  |  |  |  |  |  |  |  | 
5 | C=CCOC(=O)N[C@@H]1C(OC(C)=O)C(F)C(OC(C)=O)(C(=O)OC)OC1[C@H](OC(C)=O)[C@@H](COC(C)=O)OC(C)=O (stereo partly drawn) [SiaFAII, 5-(alloxycarbamado)-2,4,7,8,9-penta-O-acetyl-3,5-dideoxy-3-fluoro-D-glycero-β-galacto-non-2-ulopyranosonate] |  |  | 1.39 ± 0.21 | 2.87 ± 0.8 | 0.41 ± 0.73 | 0.38 | 1.83 ± 1.19 | 1.68 ± 3.2 | 1.77 ± 1.78 | 2.04 ± 1.4 | 6.91 ± 3.56 | 9.64 ± 3.93 | 39.9 ± 4.95 | 50.9 ± 6.44 | 
6 | COC(=O)C1(OC(C)=O)O[C@@H]([C@H](OC(C)=O)[C@@H](COC(C)=O)OC(C)=O)[C@H](NC(C)=O)[C@@H](OC(C)=O)[C@H]1F (stereo partly drawn) [SiaFAc, Methyl 5-(acetamido)-2,4,7,8,9-penta-O-acetyl-3,5-dideoxy-3-fluoro-D-glycero-β-galacto-non-2-ulopyranosonate, reference compound] |  | 20.9 |  |  |  |  |  |  |  |  |  |  |  |  | IC50 (B16-F10 cells [2]; [9]): 26.8 ± 5.72 µM; IC50 (B16-F10 cells [2]; [10]): 32.8 ± 3.08 µM; IC50 (THP-1 cells; [9]): 8.5 ± 1.54 µM; IC50 (THP-1 cells; [10]): 10.9 ± 2.47 µM; IC50 (HEK293 cells; [9]): 45.2 ± 8.3 µM; IC50 (HEK293 cells; [10]): 36.7 ± 3.59 µM; IC50 (HeLa cells; [9]): 53 ± 3.61 µM; IC50 (HeLa cells; [10]): 34.5 ± 2.18 µM; IC50 (9464D cells; [9]): > 102 µM; IC50 (9464D cells; [10]): > 102 µM; IC50 (EL4 cells; [9]): > 102 µM; IC50 (EL4 cells; [10]): > 102 µM
